Here are results for 13 compounds from patent publication US12264173B2 (GILEAD SCIENCES, INC., priority 2020, dated 2025).

One may read the pEC50 as the EC50 on a negative log10 scale, so that one unit is a factor of ten.

What all share (assay type): cell-based
One test has as its system RSV strain A2. The test is described as follows: microbe, parasite or virus in culture. To be noted: read-out: RSV HEp-2 EC50. As to the method:
Antiviral activity against RSV is determined using an infectious cytopathic cell protection assay in HEp-2 cells. In this assay, compounds inhibiting viral infection and/or replication produce a cytoprotective effect against the virus-induced cell killing that can be quantified using a cell viability reagent. The techniques used here are novel adaptations of methods described in published literature (Chapman et al., Antimicrob Agents Chemother. 2007, 51(9):3346-53.).
HEp-2 cells are obtained from ATCC (Manassas, VI) and maintained in MEM media supplemented with 10% fetal bovine serum and penicillin/streptomycin. Cells are passaged twice a week and kept at subconfluent stage. Commercial stock of RSV strain A2 (Advanced Biotechnologies, Columbia, MD) is titered before compound testing to determine the appropriate dilution of the virus stock that generates desirable cytopathic effect in HEp-2 cells.
For antiviral tests, HEp-2 cells are grown in large cell culture flasks to near confluency but not fully so. The compounds to be tested are prediluted in DMSO in 384-well compound dilution plates, either in an 8 or 40 sample per plate standardized dose response format. 3-fold serial dilution increments of each test compound are prepared in the plates and test samples are transferred via acoustic transfer apparatus (Echo, Labcyte) at 100 nL per well into cell culture assay 384-well plates. Each compound dilution is transferred in single or quadruplicate samples into dry assay plates, which are stored until assay is ready to go. The positive and negative controls are laid out in opposite on ends of the plate in vertical blocks (1 column).
Subsequently, an infectious mixture is prepared using an appropriate dilution of virus stock previously determined by titration with cells at a density of 50,000/mL and 20 µL/well is added to test plates w/compounds via automation (uFlow, Biotek). Each plate includes negative and positive controls (16 replicates each) to create 0% and 100% virus inhibition standards, respectively. Following the infection with RSV, testing plates are incubated for 4 days in a 37° C. cell culture incubator. After the incubation, a cell viability reagent, Cell TiterGlo (Promega, Madison, WI) is added to the assay plates, which are incubated briefly, and a luminescent readout is measured (Envision, Perkin Elmer) in all the assay plates. The RSV-induced cytopathic effect, percentage inhibition, is determined from the levels of remaining cell viability. […] Various potent anti-RSV tool compounds are used as positive controls for antiviral activity.

The subject of another test is RSV A2. The test is described as follows: RSV NHBE EC50 (RSV A2 antiviral assay in NHBE cells). To be noted: read-out: RSV NHBE EC50. As to the method:
Normal human bronchial epithelial (NHBE) cells were purchased from Lonza (Walkersville, MD, Cat #CC-2540) and cultured in Bronchial Epithelial Growth Media (BEGM) (Lonza, Walkersville, MD, Cat #CC-3170). The cells were passaged 1-2 times per week to maintain <80% confluency. The NHBE cells were discarded after 6 passages in culture.
To conduct the RSV A2 antiviral assay, NHBE cells were plated in 96-well plates at a density of 7,500 cells per well in BEGM and allowed to attach overnight at 37° C. Following attachment, 100 μL of cell culture media was removed and 3-fold serially diluted compound was added using a Hewlett-Packard D300 Digital Dispenser. The final concentration of DMSO was normalized to 0.05%. Following compound addition, the NHBE cells were infected by the addition of 100 μL of RSV A2 at a titer of 1×10^4.5 tissue culture infectious doses/mL in BEGM and then incubated at 37° C. for 4 days. The NHBE cells were then allowed to equilibrate to 25° C. and cell viability was determined by removing 100 μL of culture medium and adding 100 μL of Cell-Titer Glo viability reagent. The mixtures were incubated for 10 minutes at 25° C., and the luminescence signal was quantified on an Envision luminescence plate reader.

The next test deals with HRV16. The test is described as follows: HRV16 HeLa EC50 (cytopathic effect in H1-HeLa cells). The following applies: read-out: HRV16 HeLa EC50. As to the method:
H1-HeLa cells, cultured in complete DMEM medium containing 10% heat-inactivated FBS and 1% Penicillin/Streptomycin, were seeded in 96 well plates at 3000 cells/well one day prior to compound dosing and infection. The antiviral activity of each compound was measured in triplicate. Compounds were added directly to the cell cultures in serial 3-fold dilutions using the HP300 digital dispenser (Hewlett Packard, Palo Alto, CA) immediately prior to infection. The plates were transferred to BSL-2 containment and the appropriate dilution of virus stock, previously determined by titration and prepared in cell culture media, was added to test plates containing cells and serially diluted compounds. Each plate included 6 wells of infected untreated cells and 6 wells of uninfected cells that served as 0% and 100% virus inhibition control, respectively. Following the infection, test plates were incubated for 96 h in a tissue culture incubator set to 33° C./5% CO2. Following incubation, the H1-HeLa cells were removed from incubation and allowed to equilibrate to 25° C. Cell viability was determined by removing 100 μL of culture medium and adding 100 μL of Cell-Titer Glo viability reagent. The mixtures were incubated on a shaker for 10 minutes at 25° C., and the luminescence signal was quantified on an Envision luminescence plate reader.
(In general: Cytopathic effects are the visible damage that an infection or toxin causes in cultured cells.)

[1] abbreviates: Table 3, HEp-2 cells, RSV A2, 4 days.
[2] abbreviates: Table 3, NHBE cells, RSV A2, 4 days.
[3] abbreviates: human respiratory syncytial virus, HEp-2, 96 h, Table 3, HEp-2 cells, RSV A2, 4 days.
Where [4] appears, read: human respiratory syncytial virus, NHBE, 96 h, Table 3, NHBE cells, RSV A2, 4 days.

pEC50: −log10 of the molar value. Where two headings read alike, the source gives them in different places.

Turning to `CC(C)C(=O)OC1C(c2ccc3c(N)ncnn23)OC(C#N)(COP(=O)(NC(C)C(=O)OC2CCN(C)C2)Oc2ccccc2)C1OC(=O)C(C)C` (single isomer, unassigned) [Example 229], the pEC50 with RSV strain A2 (setting [1]) was 7.80; in the test on RSV A2 (setting [2]), 7.64; in the test with HRV16 (Table 3, H1-HeLa cells, 96 h), 6.17.
For `CC(C)C(=O)OC1C(c2ccc3c(N)ncnn23)OC(C#N)(COP(=O)(NC(C)C(=O)OC2CCN(C)C2)Oc2ccccc2)C1OC(=O)C(C)C` (single isomer, unassigned) [Example 230], the negative-log EC50 (pEC50) was 6.99 in the test with RSV strain A2 (setting [1]); 7.33 in the test on RSV A2 (setting [2]); 6.06 in the test with HRV16 (Table 3, H1-HeLa cells, 96 h).
Regarding `CC(C)C(=O)O[C@H]1[C@H](c2ccc3c(N)ncnn23)O[C@](C#N)(COP(=O)(N[C@@H](C)C(=O)O[C@H]2CCOC2)Oc2ccccc2)[C@H]1OC(=O)C(C)C` (single isomer, unassigned) [Example 240], the pEC50 is 7.70 with RSV strain A2 (setting [3]); 7.62 with RSV A2 (setting [4]); 6.90 with HRV16 (96 h, Table 3, H1-HeLa cells, 96 h).
Take `CC(C)C(=O)O[C@H]1[C@H](c2ccc3c(N)ncnn23)O[C@](C#N)(COP(=O)(N[C@@H](C)C(=O)O[C@H]2CCOC2)Oc2ccccc2)[C@H]1OC(=O)C(C)C` (single isomer, unassigned) [Example 241]: the pEC50 in the test on RSV strain A2 (setting [1]) was 7.60; in the test on RSV A2 (setting [2]) it was 7.89; with HRV16 (Table 3, H1-HeLa cells, 96 h), 6.88.
As to `CC(C)C(=O)O[C@H]1[C@H](c2ccc3c(N)ncnn23)O[C@](C#N)(COP(=O)(N[C@@H](C)C(=O)O[C@@H]2CCOC2)Oc2ccccc2)[C@H]1OC(=O)C(C)C` (single isomer, unassigned) [Example 244], the pEC50 in the test on RSV strain A2 (setting [1]) is 7.20; with RSV A2 (setting [2]) it was 7.68.
`CCOC(=O)[C@H](C)N[P@@](=O)(OC[C@@]1(C#N)O[C@@H](c2ccc3c(N)ncnn23)[C@H](OC(=O)C(C)C)[C@@H]1OC(=O)C(C)C)Oc1ccccc1` (single isomer, unassigned) [Example 249]: the pEC50 in the test on RSV strain A2 (setting [3]) is 7.33; with RSV A2 (setting [4]) it was 7.62.
The like results for `CCC(=O)OC1[C@H](c2ccc3c(N)ncnn23)O[C@](C#N)(COP(=O)(N[C@@H](C)C(=O)OCC2CC2)Oc2ccccc2)[C@H]1OC(=O)CC` (stereo in doubt) [Example 98, (2R,3S,4R,5S)-5-(4-aminopyrrolo[2,1-f][1,2,4]triazin-7-yl)-2-cyano-2-((((((S)-1-(cyclopropylmethoxy)-1-oxopropan-2-yl)amino)(phenoxy)phosphoryl)oxy)methyl) tetrahydrofuran-3,4-diyl dipropionate] were, in that order, 7.32 and 7.77.
On to `C[C@H](NP(=O)(OC[C@@]1(C#N)O[C@@H](c2ccc3c(N)ncnn23)[C@H](O)[C@@H]1O)Oc1ccccc1)C(=O)O[C@H]1CCN(C)C1` (stereo partly drawn) [Example 15, (S)-1-methylpyrrolidin-3-yl ((((2R,3S,4R,5S)-5-(4-aminopyrrolo[2,1-f][1,2,4]triazin-7-yl)-2-cyano-3,4-dihydroxytetrahydrofuran-2-yl)methoxy)(phenoxy)phosphoryl)-L-alaninate], for which the pEC50 in the test on RSV strain A2 (human respiratory syncytial virus, HEp-2, Table 5 comparative activity, 2',3'-OH vs -OC(O)iPr) is 5.36; in the test with RSV A2 (human respiratory syncytial virus, NHBE, Table 5 comparative activity, 2',3'-OH vs -OC(O)iPr), 5.49; with HRV16 (HeLa, Table 5 comparative activity, 2',3'-OH vs -OC(O)iPr), 4.94.
`CC(=O)O[C@H]1[C@H](c2ccc3c(N)ncnn23)O[C@](C#N)(CO[P@@](=O)(N[C@@H](C)C(=O)OC2CCCCC2)Oc2ccccc2)[C@H]1OC(C)=O` [Example 81, (2R,3S,4S,5S)-5-(4-aminopyrrolo[2,1-f][1,2,4]triazin-7-yl)-2-cyano-2-((((S)-(((S)-1-(cyclohexyloxy)-1-oxopropan-2-yl)amino)(phenoxy)phosphoryl)oxy)methyl) tetrahydrofuran-3,4-diyl diacetate]: the pEC50 with RSV strain A2 (setting [3]) was 6.71; with RSV A2 (setting [4]) it was 7.66.
For the compound `CC(C)C(=O)O[C@H]1[C@H](c2ccc3c(N)ncnn23)O[C@](C#N)(COP(=O)(N[C@@H](C)C(=O)OCCN2CCOCC2)Oc2ccccc2)[C@H]1OC(=O)C(C)C` (stereo partly drawn) [Example 223, (2R,3S,4S,5S)-5-(4-aminopyrrolo[2,1-f][1,2,4]triazin-7-yl)-2-cyano-2-((((((S)-1-(2-morpholinoethoxy)-1-oxopropan-2-yl)amino)(phenoxy)phosphoryl)oxy)methyl) tetrahydrofuran-3,4-diyl bis(2-methylpropanoate)], the pEC50 in the test with RSV strain A2 (setting [3]) is 5.76; in the test with RSV A2 (setting [4]) it was 6.65.
`COC(=O)[C@H](C)NP(=O)(O)OC[C@@]1(C#N)O[C@@H](c2ccc3c(N)ncnn23)[C@H](OC(=O)C(C)C)[C@@H]1OC(=O)C(C)C` [Example 242, ((2R,3S,4S,5S)-5-(4-aminopyrrolo[2,1-f][1,2,4]triazin-7-yl)-2-cyano-3,4-bis(isobutyryloxy)tetrahydrofuran-2-yl)methyl ((S)-1-methoxy-1-oxopropan-2-yl)phosphoramidate]: the pEC50 in the test on RSV strain A2 (setting [3]) is 5.14; with RSV A2 (setting [4]) it was under 5.30.
For the compound `COC(=O)[C@H](C)NP(=S)(OC[C@@]1(C#N)O[C@@H](c2ccc3c(N)ncnn23)[C@H](OC(=O)C(C)C)[C@@H]1OC(=O)C(C)C)Oc1ccccc1` (stereo partly drawn) [Example 250, (2R,3S,4S,5S)-5-(4-aminopyrrolo[2,1-f][1,2,4]triazin-7-yl)-2-cyano-2-((((((S)-1-methoxy-1-oxopropan-2-yl)amino)(phenoxy)phosphorothioyl)oxy)methyl) tetrahydrofuran-3,4-diyl bis(2-methylpropanoate)], the pEC50 is 5.41 in the test on RSV strain A2 (human respiratory syncytial virus, HEp-2, 96 h) and 5.62 in the test on RSV A2 (human respiratory syncytial virus, NHBE, 96 h).
As for `COC(=O)[C@H](C)NP(=O)(OC[C@@]1(C#N)O[C@@H](c2ccc3c(N)ncnn23)[C@H](OC(=O)C(C)C)[C@@H]1OC(=O)C(C)C)Oc1ccc(C[C@H](N)C(=O)OC(C)C)cc1` (stereo partly drawn) [Example 251, (2R,3S,4S,5S)-2-((((4-((S)-2-amino-3-isopropoxy-3-oxopropyl)phenoxy)(((S)-1-methoxy-1-oxopropan-2-yl)amino)phosphoryl)oxy)methyl)-5-(4-aminopyrrolo[2,1-f][1,2,4]triazin-7-yl)-2-cyanotetrahydrofuran-3,4-diyl bis(2-methylpropanoate)], the pEC50 with RSV strain A2 (setting [3]) was 6.73; in the test with RSV A2 (setting [4]), 7.43.
